Tests used:
[1] = log P by HPLC on reversed-phase column (C 18), EEC Directive 79/831 Annex V.A8; type: physicochemical; settings: 55° C.; for LOGP_HCOOH: log P (HCOOH); for LOGP_NEUTRAL: log P, neutral range
Description: Temperature: 55° C. […] Called log P (HCOOH) in the table. […] Called log P (neutral) in the table.

Ctenocephalides felis [2] = test: Ctenocephalides felis in vitro contact test with adult cat fleas; type: in vivo; settings: application rate 5 μg/cm^2 (500 g/ha), after 48 h
Description: Ctenocephalides felis—In Vitro Contact Tests with Adult Cat Fleas
For the coating of the test tubes, 9 mg of active ingredient are first dissolved in 1 ml of acetone p.a. and then diluted to the desired concentration with acetone p.a. 250 μl of the solution are distributed homogeneously on the inner walls and the base of a 25 ml glass tube by turning and rocking on an orbital shaker (rocking rotation at 30 rpm for 2 h). With 900 ppm of active ingredient solution and internal surface area 44.7 cm^2, given homogeneous distribution, an area-based dose of 5 μg/cm^2 is achieved.
After the solvent has evaporated off, the tubes are populated with 5-10 adult cat fleas (Ctenocephalides felis), sealed with a perforated plastic lid and incubated in a horizontal position at room temperature and ambient humidity. After 48 h, efficacy is determined. To this end, the tubes are stood upright and the fleas are knocked to the base of the tube. Fleas which remain motionless at the base or move in an uncoordinated manner are considered to be dead or moribund.
100% efficacy means that all the fleas were dead or moribund. 0% efficacy means that no fleas were harmed.

Ctenocephalides felis [3] = test: Ctenocephalides felis oral test; type: in vivo; settings: application rate 100 ppm in citrated cattle blood, after 2 days, adult cat fleas
Procedure, shortened: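 Kill (%) was recorded at 2 days. Compound, dissolved in DMSO and diluted into citrated cattle blood, was offered to roughly 20 unfed adult C. felis through parafilm.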

Meloidogyne incognita = Meloidogyne incognita test; type: in vivo; settings: application rate 20 ppm, after 14 days, lettuce
Description: Meloidogyne incognita Test Solvent: 125.0 parts by weight of acetone To produce a suitable active ingredient formulation, 1 part by weight of active ingredient is mixed with the stated amount of solvent and the concentrate is diluted with water to the desired concentration. Vessels are filled with sand, active ingredient solution, an egg/larvae suspension of the southern root-knot nematode (Meloidogyne incognita) and lettuce seeds. The lettuce seeds germinate and the plants develop. The galls develop on the roots. After 14 days, the nematicidal efficacy in % is determined by the formation of galls. 100% means that no galls were found; 0% means that the number of galls on the treated plants corresponds to the untreated control.

Phaedon cochleariae = Phaedon cochleariae spray test; type: in vivo; settings: after 7 days, Chinese cabbage leaf discs
Procedure, shortened: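 Larval kill read at day 7 as percent, where 100% means every larva dead and 0% none; larvae were placed on dried Brassica pekinensis leaf discs previously sprayed with the formulation (acetone/dimethylformamide solvent, alkylaryl polyglycol ether emulsifier, water).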

Spodoptera frugiperda = Spodoptera frugiperda spray test; type: in vivo; settings: after 7 days, maize leaf discs
Procedure, shortened: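 Efficacy in % was scored at 7 days against armyworm caterpillars placed on dried, compound-sprayed Zea mays leaf discs. Compound was dissolved in acetone/dimethylformamide and diluted in water with 1000 ppm alkylaryl polyglycol ether. 100% means all caterpillars were killed.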

Lucilia cuprina = Lucilia cuprina test; type: in vivo; settings: application rate 100 ppm, after 2 days, L1 larvae
Procedure, shortened: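 Percent mortality read at day 2, where 100% means all larvae dead. Roughly 20 L1 larvae were exposed on minced horsemeat treated with a DMSO/water formulation at the desired concentration.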

Musca domestica = Musca domestica test; type: in vivo; settings: after 2 days, adult houseflies
Description: Musca domestica Test Solvent: dimethyl sulphoxide To produce a suitable active ingredient formulation, 10 mg of active ingredient are mixed with 0.5 ml of dimethyl sulphoxide, and the concentrate is diluted with water to the desired concentration. Vessels containing a sponge treated with sugar solution and the active ingredient formulation of the desired concentration are populated with 10 adult houseflies (Musca domestica). After 2 days, the kill in % is determined. 100% means that all of the flies have been killed; 0% means that none of the flies have been killed.

Boophilus microplus = Boophilus microplus injection test; type: in vivo; settings: application rate 20 μg/animal, assessed after 7 days, engorged adult female cattle ticks
Description: Boophilus microplus—Injection Test
Solvent: dimethyl sulphoxide
To produce a suitable active ingredient formulation, 10 mg of active ingredient are mixed with 0.5 ml of solvent and the concentrate is diluted to the desired concentration with solvent.
1 μl of the active ingredient solution is injected into the abdomen of 5 engorged adult female cattle ticks (Boophilus microplus). The animals are transferred into dishes and kept in a climate-controlled room.
Efficacy is assessed after 7 days by laying of fertile eggs. Eggs which are not visibly fertile are stored in a climate-controlled cabinet until the larvae hatch after about 42 days. An efficacy of 100% means that none of the ticks has laid any fertile eggs; 0% means that all the eggs are fertile.

Tetranychus urticae = Tetranychus urticae spray test, OP-resistant; type: in vivo; settings: application rate 500 g/ha, after 6 days, bean leaf discs
Description: Tetranychus urticae—Spray Test, OP-Resistant
Solvent: 78.0 parts by weight of acetone • • 1.5 parts by weight of dimethylformamide
(§1) Emulsifier: alkylaryl polyglycol ether
(§2) To produce a suitable active ingredient formulation, 1 part by weight of active ingredient is dissolved with the specified parts by weight of solvent and made up with water containing an emulsifier concentration of 1000 ppm until the desired concentration is attained. To produce further test concentrations, the formulation is diluted with emulsifier-containing water.
Discs of bean leaves (Phaseolus vulgaris) infested with all stages of the greenhouse red spider mite (Tetranychus urticae) are sprayed with an active ingredient formulation of the desired concentration.
After 6 days, the efficacy in % is determined. 100% means that all the spider mites have been killed; 0% means that no spider mites have been killed.

Myzus persicae = Myzus persicae spray test; type: in vivo; settings: application rate 500 g/ha, after 6 days, Chinese cabbage leaf discs
Description: Myzus persicae—Spray Test
Solvent: 78 parts by weight of acetone • • 1.5 parts by weight of dimethylformamide
as §1, §2
Discs of Chinese cabbage leaves (Brassica pekinensis) infested by all stages of the green peach aphid (Myzus persicae) are sprayed with an active ingredient formulation of the desired concentration.
After 6 days, the efficacy in % is determined. 100% means that all the aphids have been killed; 0% means that no aphids have been killed.

[4] = acidic range at pH 2.7, 0.1% aqueous formic acid and acetonitrile, HPLC on reversed-phase column (C 18)
[5] = HPLC on reversed-phase column (C 18)
[6] = acidic range pH 2.7, 0.1% aqueous formic acid and acetonitrile, reversed-phase column (C 18)

LOGP_HCOOH [1, 4] | LOGP_NEUTRAL [1, 5] | LOGP_HCOOH [1, 6] | Compound | efficacy (fleas dead or moribund) (Ctenocephalides felis [2]) | efficacy (kill in %) (Ctenocephalides felis [3]) | nematicidal efficacy (formation of galls) (Meloidogyne incognita) | efficacy (beetle larvae killed) (Phaedon cochleariae; application rate 100 g/ha) | efficacy (beetle larvae killed) (Phaedon cochleariae; application rate 500 g/ha) | efficacy (caterpillars killed) (Spodoptera frugiperda; application rate 100 g/ha) | efficacy (caterpillars killed) (Spodoptera frugiperda; application rate 500 g/ha) | efficacy (kill in %) (Lucilia cuprina) | efficacy (kill in %) (Musca domestica; application rate 100 ppm) | efficacy (no laying of fertile eggs) (Boophilus microplus) | efficacy (spider mites killed) (Tetranychus urticae) | efficacy (aphids killed) (Myzus persicae) | efficacy (kill in %) (Musca domestica; application rate 20 ppm)
– | 3.01 | 3.05 | N#CCNC(=O)c1cc(-c2ccc(C(F)(F)F)cc2)cc(NC(=O)C2CC2)n1 [Example I-025] | – | 98% | 100% | – | 100% | 100% | 100% | – | – | – | – | – | –
– | 3.25 | 3.34 | C#CCNC(=O)c1cc(-c2ccc(C(F)(F)F)cc2)cc(NC(=O)C2CC2)n1 [Example I-038] | – | – | 90% | 100% | 83% | – | 83% | – | – | – | – | – | –
3.09 | 3.50 | – | N#Cc1ccc(CNC(=O)c2cc(-c3ccc([S+]([O-])C(F)(F)F)cc3)cc(NC(=O)C3CC3)n2)cc1 (centres unmarked) [Example I-151] | – | 100% | – | 100% | 100% | 100% | 100% | 100% | 100% | 80% | – | – | –
3.41 | 3.33 | – | CCNC(=O)c1cc(-c2ccc(OC(F)(F)F)cc2)cc(NC(=O)C2CC2)n1 [Example I-118] | 100% | 100% | – | 100% | 100% | 100% | 100% | – | – | – | – | – | –
– | 3.37 | 3.37 | O=C(NC1CC1)c1cc(-c2ccc(C(F)(F)F)cc2)cc(NC(=O)C2CC2)n1 [Example I-013] | 80% | 100% | – | 100% | 100% | 100% | 100% | 100% | 100% | – | – | – | –

Further lines, the compound ahead of its results:

Compound | LOGP_HCOOH [1, 4] | LOGP_NEUTRAL [1, 5] | LOGP_HCOOH [1, 6] | efficacy (fleas dead or moribund) (Ctenocephalides felis [2]) | efficacy (kill in %) (Ctenocephalides felis [3]) | nematicidal efficacy (formation of galls) (Meloidogyne incognita) | efficacy (beetle larvae killed) (Phaedon cochleariae; application rate 100 g/ha) | efficacy (beetle larvae killed) (Phaedon cochleariae; application rate 500 g/ha) | efficacy (caterpillars killed) (Spodoptera frugiperda; application rate 100 g/ha) | efficacy (caterpillars killed) (Spodoptera frugiperda; application rate 500 g/ha) | efficacy (kill in %) (Lucilia cuprina) | efficacy (kill in %) (Musca domestica; application rate 100 ppm) | efficacy (no laying of fertile eggs) (Boophilus microplus) | efficacy (spider mites killed) (Tetranychus urticae) | efficacy (aphids killed) (Myzus persicae) | efficacy (kill in %) (Musca domestica; application rate 20 ppm)
O=C(NC1CSC1)c1cc(-c2ccc(OC(F)(F)F)cc2)cc(NC(=O)C2CC2)n1 [Example I-162] | 3.88 | 3.93 | – | 100% | 100% | 90% | 100% | 100% | 100% | 100% | – | – | – | – | – | –
CC1(NC(=O)c2cc(-c3ccc(OC(F)(F)F)cc3)cc(NC(=O)C3CC3)n2)CC1 [Example I-128] | 3.84 | – | – | 100% | 100% | – | 100% | 100% | 100% | 100% | 100% | – | – | – | – | –
COC(=O)C1(NC(=O)c2cc(-c3ccc(OC(F)(F)F)cc3)cc(NC(=O)C3CC3)n2)CC1 [Example I-138] | 3.42 | – | – | 100% | 100% | 90% | 100% | 100% | 100% | 100% | 100% | 100% | – | – | – | –
CC(C)C(=O)Nc1cc(-c2ccc(OC(F)(F)F)cc2)cc(C(=O)NCc2ccc(-c3cnco3)cc2)n1 [Example I-104] | – | 3.87 | 3.99 | – | 80% | 90% | – | – | – | – | 100% | – | 95% | 90% | – | –
COC(=O)C1(NC(=O)c2cc(-c3ccc(OC(F)(F)F)cc3)cc(NC(=O)C3CC3)n2)COC1 [Example I-175] | 3.25 | 3.17 | – | – | – | – | – | – | – | – | – | – | – | – | 90% | –
N#CC1CCC(NC(=O)c2cc(-c3ccc(OC(F)(F)F)cc3)cc(NC(=O)C3CC3)n2)CC1 (centres unmarked) [Example I-197] | 3.76 | 3.66 | – | 100% | 100% | – | 83% | 100% | 100% | 100% | 100% | 80% | – | – | – | 100%
O=C(NC1CC1(F)F)c1cc(-c2ccc(OC(F)(F)F)cc2)cc(NC(=O)C2CC2)n1 (centres unmarked) [Example I-216] | 3.85 | 3.74 | – | 100% | 100% | – | 100% | 100% | 100% | 100% | 80% | – | – | – | – | –

Source: patent publication US20190053492A1, “SUBSTITUTED PYRIDINE COMPOUNDS AS PESTICIDES” (Bayer CropScience Aktiengesellschaft, priority 2016, published 2019)
